Results reported in article PMC5826917, “A small molecule inhibitor of Nicotinamide N-methyltransferase for the treatment of metabolic disorders” (Scientific Reports, 2018).

How the values were obtained:
[1] = test system: Ca2+ Channel (L-Type DHP Site); experiment: Selectivity panel: Ca2+ channel; type: binding; details: 10 µM
[2] = biological target: Muscarinic Receptor 1 (CHRM1) (Homo sapiens, UniProt P11229); experiment: Selectivity panel: CHRM1; type: cell-based
Description: (§1) Supplement 41598_2018_22081_MOESM1_ESM.docx, table 2: Supplementary table 2: Selectivity profile of JBSNF-000088 (at 10 µM) vs a panel of 34 receptors, channels and enzymes. | column: E% (agonistic); I% (antagonistic or inhibitory)

Dopamine Receptor 1 (D1) = Dopamine Receptor 1 (D1) (Homo sapiens, UniProt P21728); experiment: Selectivity panel: D1; type: cell-based
Sequence of Dopamine Receptor 1 (D1) (P21728 whole entry): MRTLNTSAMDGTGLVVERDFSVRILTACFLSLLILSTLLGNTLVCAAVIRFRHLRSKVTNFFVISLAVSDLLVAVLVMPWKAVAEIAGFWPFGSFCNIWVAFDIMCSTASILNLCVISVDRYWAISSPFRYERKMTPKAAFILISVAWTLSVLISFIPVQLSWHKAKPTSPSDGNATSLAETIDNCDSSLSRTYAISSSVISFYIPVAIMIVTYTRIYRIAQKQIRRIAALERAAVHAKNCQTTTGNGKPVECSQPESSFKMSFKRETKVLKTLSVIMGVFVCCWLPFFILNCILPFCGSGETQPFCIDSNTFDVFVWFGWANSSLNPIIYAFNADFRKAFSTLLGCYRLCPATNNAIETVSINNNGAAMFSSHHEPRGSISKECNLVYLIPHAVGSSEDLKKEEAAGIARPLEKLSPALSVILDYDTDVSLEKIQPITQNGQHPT
Description: as §1

[3] = biological target: Histamine Receptor 1 (H1) (Homo sapiens, UniProt P35367); experiment: Selectivity panel: H1; type: cell-based
Sequence of Histamine Receptor 1 (H1) (P35367 whole entry): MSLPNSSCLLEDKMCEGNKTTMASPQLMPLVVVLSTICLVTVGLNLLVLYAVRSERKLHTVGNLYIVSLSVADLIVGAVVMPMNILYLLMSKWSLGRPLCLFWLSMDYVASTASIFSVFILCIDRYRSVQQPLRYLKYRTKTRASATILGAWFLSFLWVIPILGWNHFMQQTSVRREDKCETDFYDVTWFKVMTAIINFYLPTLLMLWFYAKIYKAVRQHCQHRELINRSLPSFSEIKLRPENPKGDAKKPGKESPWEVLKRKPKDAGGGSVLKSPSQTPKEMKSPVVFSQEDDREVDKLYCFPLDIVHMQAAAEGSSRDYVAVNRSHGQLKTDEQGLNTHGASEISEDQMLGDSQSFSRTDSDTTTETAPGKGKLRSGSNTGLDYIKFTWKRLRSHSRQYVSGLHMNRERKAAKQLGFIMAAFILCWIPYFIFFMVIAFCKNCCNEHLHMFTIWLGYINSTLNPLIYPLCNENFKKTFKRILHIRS

[4] = test system: endogenous NNMT activity in differentiated 3T3L1 cells; experiment: Cell based 3T3L1 assay (MNA levels by LC-MS/MS); set-up: species or system mouse
Description: PE-Sciex API-4000 triple quadrupole (PerkinElmerSciex Instruments, Boston, MA) mass spectrometer was employed for this analysis. […] Detection of the ions was performed in the multiple reaction monitoring (MRM) mode, monitoring the transition of the m/z 137 precursor ion to the m/z 92 product ion for MNA and m/z 141 precursor ion to the m/z 84 product ion for d4-MNA (internal standard).
The supernatant was separated and transferred to pre-labeled HPLC vials and analyzed by LC-MS/MS system.

plasma MNA levels = test system: plasma MNA levels
Description: (§2) Samples for MNA were analyzed employing a fit-for-purpose LC-MS/MS method. PE-Sciex API-4000 triple quadrupole (PerkinElmerSciex Instruments, Boston, MA) mass spectrometer was employed for this analysis. Samples (5 µL) were injected onto Kinetex HILIC (50 × 4.6 mm, 2.6 µm; Phenomenex, Torrance, CA, USA) column connected to Shimadzu VP (Shimadzu, Japan) LC system. The gradient mobile phase mixture of 0.2% formic acid and acetonitrile was delivered at a flow rate of 0.45 ml min-1 into the mass spectrometer electrospray ionization (ESI) chamber. Quantitation was achieved by MS/MS detection in positive ion mode for MNA and internal standard (d4–MNA). Detection of the ions was performed in the multiple reaction monitoring (MRM) mode, monitoring the transition of the m/z 137 precursor ion to the m/z 92 product ion for MNA and m/z 141 precursor ion to the m/z 84 product ion for d4-MNA (internal standard).
A simple protein precipitation extraction method was followed for extraction of N-methylnicotinamide from plasma and various tissue homogenate samples. The tissue samples were homogenized with 1:3 proportions of phosphate buffer saline (PBS) and this homogenate was used for N-Methylnicotinamide determinations. […] The supernatant was separated and transferred to pre-labeled HPLC vials and analyzed by LC-MS/MS system.

NaV1.5 = NaV1.5 (Homo sapiens, UniProt Q14524); experiment: NaV1.5 assay; details: tested at 30 µM, result printed @ 10 µM; data not shown
Sequence of NaV1.5 (Q14524 whole entry): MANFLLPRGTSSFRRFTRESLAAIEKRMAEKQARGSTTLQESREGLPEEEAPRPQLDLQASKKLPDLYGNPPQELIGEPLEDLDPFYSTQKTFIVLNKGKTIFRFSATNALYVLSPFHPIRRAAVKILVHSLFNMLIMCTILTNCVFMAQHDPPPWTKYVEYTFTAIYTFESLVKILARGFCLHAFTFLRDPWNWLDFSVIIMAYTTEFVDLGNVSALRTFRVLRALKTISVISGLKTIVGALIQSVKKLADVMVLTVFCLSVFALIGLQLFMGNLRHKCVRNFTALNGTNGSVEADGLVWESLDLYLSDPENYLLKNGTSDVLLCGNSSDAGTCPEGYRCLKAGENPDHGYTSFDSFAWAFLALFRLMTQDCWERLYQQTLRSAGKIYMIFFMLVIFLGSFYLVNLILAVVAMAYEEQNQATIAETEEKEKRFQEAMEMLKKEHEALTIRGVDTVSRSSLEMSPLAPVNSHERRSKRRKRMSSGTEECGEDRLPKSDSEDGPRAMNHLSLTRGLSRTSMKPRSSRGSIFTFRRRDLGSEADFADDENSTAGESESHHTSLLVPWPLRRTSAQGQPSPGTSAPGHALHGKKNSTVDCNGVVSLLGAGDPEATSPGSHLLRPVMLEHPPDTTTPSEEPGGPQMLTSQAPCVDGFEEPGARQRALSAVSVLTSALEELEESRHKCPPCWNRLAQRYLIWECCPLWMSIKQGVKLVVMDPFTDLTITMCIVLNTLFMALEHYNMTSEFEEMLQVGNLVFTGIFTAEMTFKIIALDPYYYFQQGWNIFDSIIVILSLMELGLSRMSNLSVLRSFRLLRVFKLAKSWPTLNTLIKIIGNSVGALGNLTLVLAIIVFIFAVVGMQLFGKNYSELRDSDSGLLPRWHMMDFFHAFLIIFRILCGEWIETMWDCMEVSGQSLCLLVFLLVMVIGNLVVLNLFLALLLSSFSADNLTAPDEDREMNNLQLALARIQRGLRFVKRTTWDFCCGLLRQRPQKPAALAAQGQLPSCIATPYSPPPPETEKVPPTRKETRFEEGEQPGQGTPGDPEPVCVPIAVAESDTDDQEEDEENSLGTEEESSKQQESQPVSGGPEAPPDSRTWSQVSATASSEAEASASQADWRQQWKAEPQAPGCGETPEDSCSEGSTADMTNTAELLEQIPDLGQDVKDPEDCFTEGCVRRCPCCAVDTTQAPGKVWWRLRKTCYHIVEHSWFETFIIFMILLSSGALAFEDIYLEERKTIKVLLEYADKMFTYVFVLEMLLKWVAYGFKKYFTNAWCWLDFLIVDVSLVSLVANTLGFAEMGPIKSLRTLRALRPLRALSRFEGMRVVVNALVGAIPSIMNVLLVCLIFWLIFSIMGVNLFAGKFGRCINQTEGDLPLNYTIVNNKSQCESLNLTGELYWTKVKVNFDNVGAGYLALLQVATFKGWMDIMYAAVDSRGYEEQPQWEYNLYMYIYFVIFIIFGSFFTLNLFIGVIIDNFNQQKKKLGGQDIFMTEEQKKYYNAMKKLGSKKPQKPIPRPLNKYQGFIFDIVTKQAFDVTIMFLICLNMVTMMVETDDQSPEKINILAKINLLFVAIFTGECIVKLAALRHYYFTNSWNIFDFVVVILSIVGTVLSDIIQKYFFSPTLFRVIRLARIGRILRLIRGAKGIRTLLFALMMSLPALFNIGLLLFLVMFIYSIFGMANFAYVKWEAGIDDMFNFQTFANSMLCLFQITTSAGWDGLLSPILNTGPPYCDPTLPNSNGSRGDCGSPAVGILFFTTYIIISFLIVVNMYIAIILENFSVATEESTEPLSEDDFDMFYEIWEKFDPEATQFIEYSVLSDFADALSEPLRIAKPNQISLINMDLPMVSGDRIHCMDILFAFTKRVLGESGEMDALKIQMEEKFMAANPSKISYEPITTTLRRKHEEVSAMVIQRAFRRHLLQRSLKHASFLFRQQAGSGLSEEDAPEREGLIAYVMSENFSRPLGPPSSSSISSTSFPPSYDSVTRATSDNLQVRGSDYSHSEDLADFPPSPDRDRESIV

[5] = test system: mice with diet-induced obesity (DIO); experiment: Chronic efficacy study in diet-induced obesity (DIO) mice; type: in vivo, C57BL6/N mice
Description: as §2
A simple protein precipitation extraction method was followed for extraction of N-methylnicotinamide from plasma and various tissue homogenate samples. The tissue samples were homogenized with 1:3 proportions of phosphate buffer saline (PBS) and this homogenate was used for N-Methylnicotinamide determinations. To an aliquot of ~50 μL of plasma/ liver homogenate/ adipose tissue homogenate samples ~300 µl of acetonitrile containing IS (d4-MNA) solution was added, followed by vortex for ~3 minutes and centrifuged for 10 minutes at 14,000 rpm. The supernatant was separated and transferred to pre-labeled HPLC vials and analyzed by LC-MS/MS system.
Male C57BL6/N (Vivo Bio Tech Ltd, India), ob/ob (B6.V-Lepob/OlaHsd) and its lean control (Envigo laboratories Inc, USA) and db/db (BKS.Cg- + Leprdb/ + Leprdb/OlaHsd) and its lean control (Envigo laboratories Inc, USA) were housed in individually ventilated cages (n = 5/cage) under standard laboratory conditions. The study room environment was maintained at a temperature of 21–24 °C and, relative humidity at 40–70%. The animal rooms were maintained under 12 h light and dark cycle. Animals were provided with ad libitum access to water and food (except where noted otherwise, e.g. during fasting prior for glucose tolerance tests, fasting prior to terminal sacrifice). Animals were acclimatized for 1 week before initiation of studies. For Diet induced obesity (DIO) mice study, C57BL6/N mice were maintained on rodents chow diet (Teklad; Harlan) or HFD (60% Kcal; Research diet) for 14 weeks before study initiation and throughout the study period. ob/ob and db/db mice and their lean controls were maintained on rodents chow diet (Teklad; Harlan). All the experiments were approved by Institutional Animal Ethics Committee (IAEC) of Jubilant Biosys Ltd, India.
Lean control + Vehicle and HFD + Vehicle Control groups (G1 and G2) mice were administered with vehicle. Dose formulations of HFD + JBSNF-000088, 50 mg kg^−1, po, bid were administered at dose volume of 5 mL kg^−1 body weight to G3 mice. Similar pattern was followed for ob/ob mice and db/db mice studies. The dose volume for individual animals was calculated based on the most recently recorded body weight during the study period. […] Cage side observations of animals for visible clinical signs, was carried out once daily throughout the study period. Individual animal body weights were recorded twice weekly during the study period.
The ob/ob mice were 12 weeks of age at the start of the study and db/db mice were 8 weeks of age at the start of the study. DIO mice were 20 weeks of age at the start of the study. In each study, non-diabetic lean mice comprised the control group which received vehicle (0.5% w/v HEC and 0.5% v/v Tween 80) and obese or diabetic mice were randomly assigned to two groups based on body weight and unfasted glucose which received either vehicle (0.5% w/v HEC and 0.5% v/v Tween 80) or JBSNF-000088, 50 mg kg^−1, po, bid for 30 days.

in vitro = details: human, microsomes, Metabolic stability human microsomes (% remaining)
[6] = biological target: Serotonin receptor 2B (5HT2B (Homo sapiens, UniProt P41595)); experiment: Selectivity panel: 5HT2B; type: cell-based
Sequence of Serotonin receptor 2B (5HT2B (P41595 whole entry): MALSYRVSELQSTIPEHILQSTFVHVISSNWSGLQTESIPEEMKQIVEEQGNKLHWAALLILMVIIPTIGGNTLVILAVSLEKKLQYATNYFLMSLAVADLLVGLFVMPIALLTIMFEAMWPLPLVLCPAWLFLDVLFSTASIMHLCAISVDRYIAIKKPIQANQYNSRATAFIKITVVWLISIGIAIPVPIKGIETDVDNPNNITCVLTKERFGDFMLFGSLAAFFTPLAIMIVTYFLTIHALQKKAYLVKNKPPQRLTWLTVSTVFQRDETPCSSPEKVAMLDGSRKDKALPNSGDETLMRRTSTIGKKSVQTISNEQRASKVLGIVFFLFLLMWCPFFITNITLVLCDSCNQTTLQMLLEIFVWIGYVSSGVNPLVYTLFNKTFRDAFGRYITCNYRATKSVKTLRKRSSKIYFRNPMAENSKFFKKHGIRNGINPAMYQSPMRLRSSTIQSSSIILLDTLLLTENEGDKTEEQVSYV
Description: as §1

Sequence of Muscarinic Receptor 1 (CHRM1) (P11229 whole entry): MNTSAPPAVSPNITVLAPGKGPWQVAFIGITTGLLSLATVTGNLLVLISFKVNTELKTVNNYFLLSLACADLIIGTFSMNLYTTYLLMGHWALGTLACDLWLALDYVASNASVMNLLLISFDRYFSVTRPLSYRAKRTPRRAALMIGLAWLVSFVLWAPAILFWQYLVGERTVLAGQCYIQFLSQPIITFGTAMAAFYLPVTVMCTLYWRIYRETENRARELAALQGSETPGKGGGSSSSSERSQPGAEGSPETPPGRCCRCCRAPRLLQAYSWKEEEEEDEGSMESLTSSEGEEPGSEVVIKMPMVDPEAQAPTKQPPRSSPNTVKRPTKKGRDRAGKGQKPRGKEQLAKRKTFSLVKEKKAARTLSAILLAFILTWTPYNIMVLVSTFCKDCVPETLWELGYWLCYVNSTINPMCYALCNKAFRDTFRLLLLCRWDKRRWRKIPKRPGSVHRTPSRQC

For COc1ccc(C(N)=O)cn1 [JBSNF-000088, 6-methoxynicotinamide], the “I% (antagonistic or inhibitory), Ca2+ Channel (L-Type DHP Site)” value [1] was 0%, the “E% (agonistic), CHRM1” value ([2]; 10 µM) was -3% and the inhibition at 10 µM ([2]; read-out: I% (antagonistic or inhibitory), CHRM1) was -7%. For the same compound, the “E% (agonistic), D1” value (Dopamine Receptor 1 (D1); 10 µM) was 0%, the inhibition at 10 µM (Dopamine Receptor 1 (D1); read-out: I% (antagonistic or inhibitory), D1) was -3% and the “E% (agonistic), H1” value ([3]; 10 µM) was -2%. For the same compound, the inhibition at 10 µM ([3]; read-out: I% (antagonistic or inhibitory), H1) was -5%, the IC50 ([4]; Mus musculus, 3T3-L1, 24 h treatment, MNA by LC-MS/MS) was 6.3 µM and the “right shift in potency, 3T3L1 cells compared to U2OS cells” value ([4]; ratio of cellular IC50 values) was “approximately 4 fold”. The “plasma MNA levels” value (plasma MNA levels; 50 mg kg^−1 orally, C57BL/6 mice, till 4 h post dosing) was “Significant reductions”, the “reduction of plasma MNA levels” value (plasma MNA levels; Discussion statement) was ~ 50% and the NaV1.5 inhibition (NaV1.5) was < 30%. The “body weight (%)” value ([5]; 50 mg kg^−1 b.i.d. p.o., four weeks, vs vehicle) was “statistically significant reduction”, the cumulative food intake ([5]; 50 mg kg^−1 b.i.d. p.o., vs vehicle) was “comparable” and the fed plasma insulin ([5]; day 14, p < 0.01 vs HFD control) was “trend to a reduction in fed plasma insulin that was statistically significant on day 14”. The fed blood glucose ([5]; day 21, p < 0.01 vs vehicle control) was “statistically significant reduction”, the oral glucose tolerance ([5]; day 28, normalized to chow control group) was “statistically significant improvement” and the “AUC blood glucose (OGTT)” value ([5]; day 28, p < 0.001 vs HFD control) was “Significantly lower”. For the same compound, the “MNA levels in visceral WAT” value ([5]; p < 0.0001 vs HFD control) was “statistically significant reduction”, the “plasma insulin at 0 and 15 minutes of OGTT” value ([5]; p < 0.0001 vs HFD control) was “statistically significant lower” and the HOMA-IR index ([5]; p < 0.0001 vs vehicle-treated HFD controls) was “statistically significant improvement”. For the same compound, the plasma triglyceride ([5]; p < 0.001 vs HFD control, data not shown) was “statistically significant reduction”, the liver triglyceride ([5]; p < 0.05 vs HFD control, data not shown) was “statistically significant reduction” and the remaining at 0.5 h (in vitro) was > 70%. The “E% (agonistic), 5HT2B” value ([6]; 10 µM) was 4% and the inhibition at 10 µM ([6]; read-out: I% (antagonistic or inhibitory), 5HT2B) was 13%.
